Like-named read-outs stand apart in the source and are kept apart here.

The values that follow come from patent publication US20040192606A1, “Method of promoting angiogenesis” (priority 1995, published 2004).

In data set [1] the test system is THP-1 cells. The data set can be described thus: VEGF protein secretion by THP-1 cells (ELISA of conditioned media). To be noted: for inhibition of relaxin-induced VEGF stimulation: PKA inhibitors used at or above their Ki doses, ELISA, data not shown; for VEGF induction: 17 nM (equivalent molar concentration to relaxin). The format is cell-based, human. Background: An ELISA detects its analyte on a solid surface through an enzyme-linked reagent.

Data set [2] relates to THP-1 cells. The data set can be described thus: cAMP levels in THP-1 cells. The format is cell-based, human.
In data set [3] the test system is VEGF transcripts in THP-1 cells. Briefly: PCR and Southern blot analysis of steady state VEGF mRNA in THP-1 cells. The format is cell-based, human.
In another data set the test system is rabbit corneal stroma. The data set can be described thus: Rabbit corneal assay (neo-capillary growth toward implanted hydron disc). In kind it is in vivo. On the procedure:
(§1) In vivo activity for angiogenesis is determined by the rabbit corneal injection protocol and by the matrigel subcutaneous insert vascularization protocol.
Test and control material is mixed with hydron into a 0.1 cc disc (resembling a small contact lens). The disc is implanted into a rabbit corneal stroma micro pocket using appropriate anesthesia for the procedure. After one week, neo-capillary growth toward the disc is measured and scored (0-4) utilizing a standard anatomic grading scale. A score of 0 means no growth. A score of 1 means capillaries (one or two) just entering the corneal stroma from the limbus toward the pocket. A score of 3 means vessels have grown to the base of the implant. A score of 4 means vessels have grown around the implant.

The subject of data set [4] is mouse dorsum (matrigel plug). The data set can be described thus: Murine matrigel subcutaneous insert vascularization assay. In kind it is in vivo. The method, then:
as §1
Matrigel (Collaborative Biomedical, Bedford, Mass.) is a reconstituted basement membrane complex containing primarily laminin and type IV collagen. It is isolated from the Engelbreth-Holm-Swarm (EHS) murine tumor. At room temperature, matrigel is liquid; but when injected subcutaneously into a mouse it reconstitutes as a gel.
Test substance is mixed with matrigel (1%v/v media in 1 cc matrigel) at room temperature and then injected subcutaneously into a mouse dorsum (5 month old female Swiss-Webster). After one week, the mouse is sacrificed and the gel plug(s) harvested. Samples are fixed in buffered formalin, paraffin embedded, sectioned (4 μ) and H&E stained. The samples are scored 1 (positive), 0.5 (indeterminate) or 0 (negative).

Data set [5] can be described thus: Serum concentration of relaxin in ongoing clinical trials. In kind it is in vivo, human. On the procedure: While human dosage levels for treating depression have yet to be optimized for relaxin, generally, a daily dose is from about […] of body weight per day, preferably about […] μg/kg, and most preferably about 12.0 to 100.0 μg/kg. Generally it is sought to obtain a serum concentration of relaxin approximating or greater than normal circulating levels in pregnancy, i.e., 1.0 ng/ml, such as 0.5 to 50 ng/ml, preferably 1.0 to 20 ng/ml. […] Thus, for administration to a 70 kg person, the dosage range would be about 7.0 μg to 3.5 mg per day, preferably about […] to 2.1 mg per day, and most preferably about […] per day. The amount of relaxin administered will, of course, be dependent on the subject and the severity of the affliction, the manner and schedule of administration and the judgment of the prescribing physician.

For data set [6], the system named is THP-1 cells. The data set can be described thus: Other effects on THP-1 cells (morphology, thymidine uptake, metalloproteinase expression, nitric oxide production). In kind it is cell-based, human.

For `C[C@]12CC[C@@H]3c4ccc(O)cc4CC[C@H]3[C@@H]1CC[C@@H]2O` [17-β-estradiol], the “effect on relaxin VEGF stimulation compared to relaxin alone” value in the data set with THP-1 cells [1] (1 μM, simultaneously with relaxin or 48 hours pretreatment) was “Neither treatment protocol resulted in a difference in VEGF stimulation”.

Consider `O=S(=O)(NCCNC/C=C/c1ccc(Br)cc1)c1cccc2cnccc12` [H-89], for which the “inhibition of relaxin-induced VEGF stimulation” value (“inhibition” for short) in the data set with THP-1 cells [1] is “failed to completely inhibit VEGF stimulation”.

On to `CC(C)Cn1c(=O)n(C)c(=O)c2[nH]cnc21` [IBMX, isobutylmethylxanthing], for which the “Net VEGF Expr” value amounted to 154 ± 46 pg/mL with THP-1 cells [1] (Exp 1, 50 × 10^−6M, 24 h, net of placebo-treated control, mean ± SEM) and 209 ± 20 pg/mL in the data set on THP-1 cells [1] (Exp 2, 50 × 10^−6M, 8 h, net of placebo, mean ± SEM).

Take `CCCCCCOC(=O)[C@]1(O)C[C@@H]2O[C@@]1(C)n1c3ccccc3c3c4c(c5c6ccccc6n2c5c31)C(=O)NC4` [KT5720]: the “inhibition” value in the data set on THP-1 cells [1] is “failed to completely inhibit VEGF stimulation”.

Take `CCCCCCCCCCCCCC(=O)O[C@@H]1[C@@H](C)[C@@]2(O)[C@@H](C=C(CO)C[C@]3(O)C(=O)C(C)=C[C@@H]23)[C@@H]2C(C)(C)[C@]12OC(C)=O` [PMA, reference compound]: the “Net VEGF Expr” value with THP-1 cells [1] (Exp 5, 1 ng/ml, 8 h, net of placebo, mean ± SEM) stood at 342 ± 18 pg/mL. Besides, the cAMP levels result with THP-1 cells [2] (1 ng/ml, data not shown) is given as “does not increase cAMP levels”.

With `Nc1ncnc2c1ncn2C1CCCO1` (stereo not shown) [SQ22536], the “inhibition” value with THP-1 cells [1] was “failed to completely inhibit VEGF stimulation”.

As for `C[C@@H]1C[C@@H]([C@H](O)CC2CC(=O)NC(=O)C2)C(=O)[C@@H](C)C1` [cycloheximide, reference compound], the “effect on relaxin-induced increase of VEGF transcripts” value in data set [3] (added with recombinant human relaxin (H2)) is “did not interfere with or amplify this increase”.

With `CCCC(=O)Nc1ncnc2c1ncn2[C@@H]1O[C@@H]2COP(=O)(O)O[C@H]2[C@H]1OC(=O)CCC` [dbcAMP, Dibutyryl cAMP], the “Net VEGF Expr” value was 488 ± 27 pg/mL in the data set with THP-1 cells [1] (Exp 3, 10^−4M, 8 h, net of placebo, mean ± SEM); 142 ± 26 pg/mL with THP-1 cells [1] (Exp 3, 10^−5M, 8 h, net of placebo, mean ± SEM); -0- pg/ml in the data set with THP-1 cells [1] (Exp 3, 10^−6M, 8 h, net of placebo).

As for `CCCC(=O)Nc1nc2c(ncn2[C@@H]2O[C@@H]3COP(=O)(O)O[C@H]3[C@H]2OC(=O)CCC)c(=O)[nH]1` [dbcGMP, dibutyryl cGMP], the “Net VEGF Expr” value in the data set on THP-1 cells [1] (Exp 3, 10^−6M-10^−4M (each dose), 8 h, net of placebo) is given as -0- pg/ml.

In the case of Cholera toxin, in the data set on THP-1 cells [1], the “Net VEGF Expr” value amounted to 1278 ± 106 pg/mL.

As to “IGF-I: member of the relaxin family (Promega)”, the VEGF induction result in the data set on THP-1 cells [1] was “Neither IGF-I and IGF-II induced VEGF production”.

Turning to “IGF-II: member of the relaxin family (Promega)”, the VEGF induction entry in the data set with THP-1 cells [1] was “Neither IGF-I and IGF-II induced VEGF production”.

In the case of Pertussis toxin, in the data set on THP-1 cells [1] (Exp 4, 1 μg/ml, 8 h, net of placebo, mean ± SEM), the “Net VEGF Expr” value is on record as -0- pg/ml.

“insulin: member of the relaxin family, compared at 17 nM”: the “VEGF expression relative to that induced by relaxin” value with THP-1 cells [1] (17 nM) is on record as “roughly 30%”.

Consider relaxin, for which the “mean score of neo-capillary growth toward the disc (0-4 anatomic grading scale)” value with rabbit corneal stroma (disc in rabbit corneal stroma micro pocket, after one week, n=8, standard error 0.5, placebo 0.6, P 0.08) is listed as 1.5. Besides, the “angiogenic activity (conclusion)” value (in the data set with rabbit corneal stroma (rabbit corneal assay); in data set [4] (murine matrigel assay)) was “angiogenic” throughout. The “mean score of gel plugs (1 positive, 0.5 indeterminate, 0 negative)” value in data set [4] (subcutaneous matrigel in mouse, after one week, standard error 0.1, control 0.3, P 0.02) is recorded as 0.8. Also, the serum concentration entry was “about 1.8 ng/ml” in data set [5] (dosage about 6.0 μg/kg, ±0.3); about 3.6 ng/mL in data set [5] (dosage about 12.0 μg/kg, ±0.6); about 11.8 ng/mL in data set [5] (dosage about 50 μg/kg, ±1.6). For the same molecule, in the data set on THP-1 cells [1] (1 ng/ml and 100 ng/ml), the “time course of VEGF in conditioned media” value is “increased in the conditioned media in roughly linear fashion up to at least 72 hours”. For the same molecule, in the data set on THP-1 cells [1] (0.04-50 ng/ml, 8 hours), the “VEGF protein secretion (dose dependence)” value is reported as “dose dependent manner”. In the data set with THP-1 cells [1] (Exp 2, 10 ng/ml, 8 h, net of placebo, mean ± SEM), the “Net VEGF Expr” value is 161 ± 19 pg/mL. Also, the “relaxin concentration at which VEGF protein secretion peaks” value in the data set with THP-1 cells [1] (doses 0.04-50 ng/ml, 8 hours) is 1 ng/mL. For the same molecule, the “morphological changes (adherence to plastic, clumping)” value with THP-1 cells [6] is given as “no observable morphological changes”. Also, in data set [3] (10 ng/ml), the “time at which increase of VEGF transcripts is detectable” value stood at 30 min. Besides, the “increase of VEGF121, 165 and 189 PCR bands” value in data set [3] (10 ng/ml, by 2 hours) is “roughly 2 fold”. In addition, in data set [3] (100 ng/ml), the “intensity of VEGF transcript bands on Southern blot” value was “intensity of all bands is increased”. In addition, the cAMP levels result in the data set with THP-1 cells [2] (relaxin treatment, dose not given) was “causes an increase in cAMP”.
